For 36 molecules, IC50 results are on record in patent publication US12486276B2, “5-(2,5-difluorophenyl)pyrrolidin-1-yl)-3-(1H-pyrazol-1-yl)pyrazolo[1,5-a]pyrimidine derivatives and related compounds as Trk kinase inhibitors for treating cancer” (Pyramid Biosciences, Inc., priority 2017, dated 2025).

Structures are written as SMILES. pIC50: −log10 of the molar value.

T1 sequence (P04629 510-781 limits assumed): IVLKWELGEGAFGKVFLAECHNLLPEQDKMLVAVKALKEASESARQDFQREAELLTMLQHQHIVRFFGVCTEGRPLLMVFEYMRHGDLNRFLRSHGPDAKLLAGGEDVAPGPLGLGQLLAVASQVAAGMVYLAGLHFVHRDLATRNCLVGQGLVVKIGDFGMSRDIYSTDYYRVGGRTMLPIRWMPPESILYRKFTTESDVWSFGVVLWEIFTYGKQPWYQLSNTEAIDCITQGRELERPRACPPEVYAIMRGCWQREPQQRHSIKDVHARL

The assay concerns the target T1, TrkA kinase domain (Homo sapiens, UniProt P04629).
T1 construct: TrkA kinase domain was supplied by SignalChem; purchased SignalChem
The assay is described as follows: TrkA Kinase Assay (Trk kinase biochemical assay). Particulars: 33 pM TrkA, 100 nM peptide substrate, 10 µM ATP; 15 minute preincubation; read-out: TrkA WT IC50. As for the experimental part: Example 33: TrkA Kinase Assay Protocol
TrkA kinase domain was supplied by SignalChem. Ulight PolyGT peptide substrate and Europium labeled W1024 antiphosphotyrosine antibody were supplied by Perkin Elmer. Assay buffer contained 50 mM HEPES, 10 mM MgCb, 1 mM EGTA, 2 mM DTT, 0.1 mg/mL BSA, and 0.005% w/v tween 20, pH 7.5. Enzyme dilution buffer was made by supplementing assay buffer with 25% w/v glycerol. Antibody dilution buffer contained 20 mM Tris, 137 mM NaCl, and 0.05% w/v tween 20, pH 8.0. Buffers were prepared at room temperature. Enzyme solutions were made on ice, while other solutions were made at room temperature and all subsequent assay steps were performed at room temperature. The TrkA stock solution (0.1 mg/mL) was diluted 156× in enzyme dilution buffer and then 100× in assay buffer. Five pL/well of enzyme solution was added to the assay plate (Greiner black 384-well nonbinding plate), with buffer containing no enzyme added to negative control wells. Test compounds were serially diluted in DMSO at 300× final assay concentration. One μL of each test compound dilution was mixed with 99 pL assay buffer plus ATP (30 μM) and five pL of each test compound-ATP solution was added to w¾13s containing enzyme. Positive control wells contained enzyme and substrates but no test compounds. After a 15 minute enzyme-test compound preincubation, five pL of substrate diluted in assay buffer was added to all wells. Final assay concentrations were 33 pM TrkA, 100 nM peptide substrate, and […]. After a five minute reaction, five pL of 80 mM EDTA was added, followed five minutes later by five pL two nM antibody solution. The ratio of fluorescence at 665 nm vs. 615 nM in each well was determined using a Tecan Infinite Pro F200 plate reader. For each test compound well, percent inhibition w % s calculated (% inliib. =100-100*(test value-neg. control)/(pos. control-neg. control)). Percent inhibition values were fit to a four parameter logistic to determine ICso values for each test compound.
The term pIC50 denotes the negative decadic logarithm of the IC50, by convention in mol/L. In the case of `Fc1cncc(-c2cnn(-c3cnn4ccc(N5CCC[C@@H]5c5cc(F)ccc5F)nc34)c2)c1` [I-190], the pIC50 was more than 8.00.

Turning to `N#Cc1cncc(-c2cnn(-c3cnn4ccc(N5CCC[C@@H]5c5cc(F)ccc5F)nc34)c2)c1` [I-191], the pIC50 was more than 8.00.

For `Fc1cccnc1[C@H]1CCCN1c1ccn2ncc(-n3cc(-c4ccccc4)cn3)c2n1` [I-192], the pIC50 is more than 8.00.

`Fc1ccc(F)c([C@H]2CCCN2c2ccn3ncc(-n4cc(-c5ccccc5)cn4)c3n2)n1` [I-193]: the pIC50 is more than 8.00.

`Fc1ccc(F)c([C@H]2CCCN2c2ccn3ncc(-n4cc(-c5cccnc5F)cn4)c3n2)c1` [I-194]: the pIC50 was more than 8.00.

Take `Cc1cnn(-c2cnn3ccc(N(C)[C@H](C)c4ccccc4)nc23)c1` [I-195, (R)—N-methyl-3-(4-methyl-1H-pyrazol-1-yl)-N-(1-phenylethyl)pyrazolo[1,5-a]pyrimidin-5-amine]: the pIC50 was more than 8.00.

For the molecule `Cc1cnn(-c2cnn3ccc(N[C@H](C)c4ccccc4)nc23)c1` [I-196], the pIC50 was more than 8.00.

For `CN(C)C(=O)Nc1cnn(-c2cnn3ccc(N4CCC[C@@H]4c4cc(F)ccc4F)nc23)c1` [I-197], the pIC50 is more than 8.00.

Consider `CN(C)S(=O)(=O)Nc1cnn(-c2cnn3ccc(N4CCC[C@@H]4c4cc(F)ccc4F)nc23)c1` [I-198, (R)—N-(1-(5-(2-(2,5-difluorophenyl)pyrrolidin-1-yl)pyrazolo[1,5-a]pyrimidin-3-yl)-1H-pyrazol-4-yl)-1,1-dimethylsulfonylurea], for which the pIC50 is more than 8.00.

Consider `Fc1ccc(F)c([C@H]2CCCN2c2ccn3ncc(-n4cc(-c5ccnnc5)cn4)c3n2)c1` [I-199], for which the pIC50 was more than 8.00.

Regarding `COc1ccc(-c2cnn(-c3cnn4ccc(N5CCC[C@@H]5c5cc(F)ccc5F)nc34)c2)cn1` [I-200], the pIC50 was more than 8.00.

Regarding `COc1ccncc1-c1cnn(-c2cnn3ccc(N4CCC[C@@H]4c4cc(F)ccc4F)nc23)c1` [I-201], the pIC50 is more than 8.00.

On to `COc1ncccc1-c1cnn(-c2cnn3ccc(N4CCC[C@@H]4c4cc(F)ccc4F)nc23)c1` [I-202], for which the pIC50 is more than 8.00.

`NC(=O)c1cnccc1-c1cnn(-c2cnn3ccc(N4CCC[C@@H]4c4cc(F)ccc4F)nc23)c1` [I-203]: the pIC50 is more than 8.00.

As for `COc1cnccc1-c1cnn(-c2cnn3ccc(N4CCC[C@@H]4c4cc(F)ccc4F)nc23)c1` [I-204], the pIC50 is more than 8.00.

Consider `Fc1ccc(F)c([C@H]2CCCN2c2ccn3ncc(-n4cc(-c5ccncc5F)cn4)c3n2)c1` [I-205], for which the pIC50 is more than 8.00.

`COc1cncc(-c2cnn(-c3cnn4ccc(N5CCC[C@@H]5c5nc(F)ccc5F)nc34)c2)c1` [I-206, (R)-5-(2-(3,6-difluoropyridin-2-yl)pyrrolidin-t-yl)-3-(4-(5-methoxypyridin-3-yi)-1H-pyrazol-1-yl)pyrazolo[1,5-a]pyrimidine]: the pIC50 is more than 8.00.

As for `Fc1ccc(F)c([C@H]2CCCN2c2ccn3ncc(-n4cc(-c5ccncc5)cn4)c3n2)n1` [I-207], the pIC50 was more than 8.00.

As to `OC1CCN(c2cnn(-c3cnn4ccc(N5CCC[C@@H]5c5cc(F)ccc5F)nc34)c2)C1` (stereo partly drawn) [I-208], the pIC50 was more than 8.00.

As to `OC1CCN(c2cnn(-c3cnn4ccc(N5CCC[C@@H]5c5ncccc5F)nc34)c2)C1` (stereo partly drawn) [I-209], the pIC50 is more than 8.00.

Regarding `Fc1ccc(F)c([C@H]2CCCN2c2ccn3ncc(-n4cc(C5CCOC5)cn4)c3n2)c1` (stereo partly drawn) [I-210], the pIC50 was more than 8.00.

For `COc1cncc(-c2cnn(-c3cnn4ccc(N5CCC[C@@H]5c5ncccc5F)nc34)c2)c1` [I-211], the pIC50 was more than 8.00.

As to `Fc1ccc(F)c([C@H]2CCCN2c2ccn3ncc(-n4cc(C5=COCC5)cn4)c3n2)c1` [I-212], the pIC50 was more than 8.00.

With `Fc1cccnc1[C@H]1CCCN1c1ccn2ncc(-n3cc(-c4ccncc4)cn3)c2n1` [I-213], the pIC50 was more than 8.00.

Take `Fc1ccc(F)c([C@H]2CCCN2c2ccn3ncc(-n4cc(-c5cncc(OC6COC6)c5)cn4)c3n2)c1` [I-214, (R)-5-(2-(2,5-difluorophenyl)pyrrolidin-1-yl)-3-(4-(5-(oxetan-3-yloxy)pyridin-3-yl)-1H-pyrazol-1-yl)pyrazolo[1,5-a]pyrimidine]: the pIC50 is more than 8.00.

Turning to `Fc1cccnc1[C@H]1CCCN1c1ccn2ncc(-n3cc(C(F)(F)F)cn3)c2n1` [I-215], the pIC50 is more than 8.00.

For `COc1ccc(F)c([C@H]2CCCN2c2ccn3ncc(-n4cc(C)cn4)c3n2)n1` [I-216, (R)-5-(2-(3-fluoro-6-methoxypyridin-2-yl)pyrrolidin-1-yl)-3-(4-methyl-1H-pyrazoI-1-yl)pyrazolo[1,5-a]pyrimidine], the negative-log IC50 (pIC50) was more than 8.00.

For `Cc1cnn(-c2cnn3ccc(N4CCC[C@@H]4c4nc(N(C)C)ccc4F)nc23)c1` [I-217, (R)-5-fluoro-N,N-dimethyl-6-(1-(3-(4-methyl-1H-pyrazol-1-yl)pyrazolo[1,5-a]pyrimidin-5-yl)pyrrolidin-2-yl)pyridin-2-amine], the pIC50 was more than 8.00.

For the molecule `CNc1ccc(F)c([C@H]2CCCN2c2ccn3ncc(-n4cc(C)cn4)c3n2)n1` [I-218], the pIC50 was more than 8.00.

For the molecule `Fc1ccc(F)c([C@H]2CCCN2c2ccn3ncc(-n4cc(-c5ccc(F)nc5)cn4)c3n2)c1` [I-219, (R)-5-(2-(2,5-difluorophenyl)pyrrolidin-1-yl)-3-(4-(6-fluoropyridin-3-yl)-1H-pyrazol-1-yl)pyrazolo[1,5-a]pyrimidine], the pIC50 is more than 8.00.

In the case of `COc1ccc(-c2cnn(-c3cnn4ccc(N[C@H](C)c5cc(F)ccc5F)nc34)c2)cn1` [I-220, (R)—N-(1-(2,5-difluor®phenyl)ethyl)-3-(4-(6-methoxypyridin-3-yl)-1H-pyrazoI-1-yl)pyrazolo[1,5-a]pyrimidin-5-amine], the pIC50 is more than 8.00.

Regarding `COc1ccc(-c2cnn(-c3cnn4ccc(N5CCC[C@@H]5c5nc(F)ccc5F)nc34)c2)cn1` [I-221, (R)-5-(2-(3,6-difluoropyridin-2-yl)pyrrolidin-1-yl)-3-(4-(6-methoxypyridin-3-yl)-1H-pyrazol-1-yl)pyrazolo[1,5-a]pyrimidine], the pIC50 is more than 8.00.

As to `COc1ccc(-c2cnn(-c3cnn4ccc(N5CCC[C@@H]5c5ncccc5F)nc34)c2)cn1` [I-222], the pIC50 is more than 8.00.

Turning to `Fc1ccc(F)c([C@H]2CCCN2c2ccn3ncc(-n4cc(-c5ccc(OC6COC6)nc5)cn4)c3n2)c1` [I-223, (R)-5-(2-(2,5-difluorophenyl)pyrrolidn-1-yl)-3-(4-(6-(oxetan-3-yloxy)pyridin-3-yl)-H-pyrazol-1-yl)pyrazolo[1,5-a]pyrimidine], the pIC50 was more than 8.00.

For the molecule `CC(=O)c1cnn(-c2cnn3ccc(N4CCC[C@@H]4c4cc(F)ccc4F)nc23)c1` [I-225, (R)-1-(1-(5-(2-(2,5-difluorophenyl)pyrrolidin-1-yl)pyrazolo[1,5-a]pyrimidin-3-yl)-1H-pyrazol-4-yl)ethanone], the pIC50 was more than 8.00.

Turning to `COCc1cnn(-c2cnn3ccc(N4CCC[C@@H]4c4cc(F)ccc4F)nc23)c1` [I-226], the pIC50 was more than 8.00.
